# Experimental data taken from ChEMBL document CHEMBL2311352, “Discovery of 4-phenyl-2-phenylaminopyridine based TNIK inhibitors” (Bioorg Med Chem Lett, 2013).
# Legend:
# [1] = target: Inhibitor of nuclear factor kappa-B kinase subunit epsilon (Homo sapiens) (UniProt Q14164); test: Inhibition of IKKepsilon (unknown origin) at 1 uM
# [2] = target: High affinity nerve growth factor receptor (Homo sapiens) (UniProt P04629); test: Inhibition of TRKA (unknown origin) at 1 uM
# [3] = target: NT-3 growth factor receptor (Homo sapiens) (UniProt Q16288); test: Inhibition of TRKC (unknown origin) at 1 uM
# [4] = target: Aurora kinase B (Homo sapiens) (UniProt Q96GD4); test: Inhibition of aurora B (unknown origin) at 1 uM
# [5] = target: Ephrin type-A receptor 7 (Homo sapiens) (UniProt Q15375); test: Inhibition of EPHA7 (unknown origin) at 1 uM
# [6] = target: Insulin-like growth factor 1 receptor (Homo sapiens) (UniProt P08069); test: Inhibition of IGF1R (unknown origin) at 1 uM
# [7] = target: Tyrosine-protein kinase Yes (Homo sapiens) (UniProt P07947); test: Inhibition of YES (unknown origin) at 1 uM
# [8] = test system: Caco-2; test: Ratio of apparent permeability across basolateral to apical side over apical to basolateral side in human Caco2 cells; format: ADME, cell-based
# [9] = target: Fibroblast growth factor receptor 3 (Homo sapiens) (UniProt P22607); test: Inhibition of FGFR3 (unknown origin) at 1 uM
# [10] = target: Macrophage colony-stimulating factor 1 receptor (Homo sapiens) (UniProt P07333); test: Inhibition of FMS (unknown origin) at 1 uM
# [11] = target: Serine/threonine-protein kinase Nek1 (Homo sapiens) (UniProt Q96PY6); test: Inhibition of NEK1 (unknown origin) at 1 uM
# [12] = target: Proto-oncogene tyrosine-protein kinase ROS (Homo sapiens) (UniProt P08922); test: Inhibition of ROS (unknown origin) at 1 uM
# [13] = target: CDK6/cyclin D1 (Homo sapiens) (UniProt P24385+Q00534); test: Inhibition of CDK6/Cyclin D1 (unknown origin) at 1 uM; format: protein-complex assay
# [14] = target: Ribosomal protein S6 kinase beta-1 (Homo sapiens) (UniProt P23443); test: Inhibition of p70S6K (unknown origin) at 1 uM
# [15] = target: CDK9/cyclin T1 (Homo sapiens) (UniProt O60563+P50750); test: Inhibition of CDK9/cyclin T1 (unknown origin) at 1 uM; format: protein-complex assay
# [16] = target: Aurora kinase C (Homo sapiens) (UniProt Q9UQB9); test: Inhibition of aurora C (unknown origin) at 1 uM
# [17] = Apparent permeability across apical to basolateral side in human Caco2 cells; format: ADME, cell-based; conditions: Caco-2
# [18] = target: Angiopoietin-1 receptor (Homo sapiens) (UniProt Q02763); test: Inhibition of TIE2 (unknown origin) at 1 uM
# [19] = target: Protein-tyrosine kinase 2-beta (Homo sapiens) (UniProt Q14289); test: Inhibition of PYK2 (unknown origin) at 1 uM
# [20] = target: Fibroblast growth factor receptor 2 (Homo sapiens) (UniProt P21802); test: Inhibition of FGFR2 (unknown origin) at 1 uM
# [21] = target: Vascular endothelial growth factor receptor 2 (Homo sapiens) (UniProt P35968); test: Inhibition of VEGFR2 (unknown origin) at 1 uM
# [22] = target: Tyrosine-protein kinase Fgr (Homo sapiens) (UniProt P09769); test: Inhibition of FGR (unknown origin) at 1 uM
# [23] = target: T1, TRAF2 and NCK-interacting protein kinase (Homo sapiens, UniProt Q9UKE5); test: Competitive binding affinity to TNIK (unknown origin) in presence of ATP
# [24] = target: Ephrin type-B receptor 1 (Homo sapiens) (UniProt P54762); test: Inhibition of EPHB1 (unknown origin) at 1 uM
# [25] = target: Tyrosine-protein kinase Fes/Fps (Homo sapiens) (UniProt P07332); test: Inhibition of FES (unknown origin) at 1 uM
# [26] = target: Serine/threonine-protein kinase 26 (Homo sapiens) (UniProt Q9P289); test: Inhibition of MST4 (unknown origin) at 1 uM
# [27] = target: Mast/stem cell growth factor receptor Kit (Homo sapiens) (UniProt P10721); test: Inhibition of c-KIT (unknown origin) at 1 uM
# [28] = target: Proto-oncogene tyrosine-protein kinase receptor Ret (Homo sapiens) (UniProt P07949); test: Inhibition of RET (unknown origin) at 1 uM
# [29] = target: T1, TRAF2 and NCK-interacting protein kinase; test: Inhibition of TNIK-mediated TCF4/[…] transcription in human HCT116 cells by beta-lactamase reporter gene assay; format: cell-based, HCT-116
# T1 sequence (Q9UKE5 whole entry): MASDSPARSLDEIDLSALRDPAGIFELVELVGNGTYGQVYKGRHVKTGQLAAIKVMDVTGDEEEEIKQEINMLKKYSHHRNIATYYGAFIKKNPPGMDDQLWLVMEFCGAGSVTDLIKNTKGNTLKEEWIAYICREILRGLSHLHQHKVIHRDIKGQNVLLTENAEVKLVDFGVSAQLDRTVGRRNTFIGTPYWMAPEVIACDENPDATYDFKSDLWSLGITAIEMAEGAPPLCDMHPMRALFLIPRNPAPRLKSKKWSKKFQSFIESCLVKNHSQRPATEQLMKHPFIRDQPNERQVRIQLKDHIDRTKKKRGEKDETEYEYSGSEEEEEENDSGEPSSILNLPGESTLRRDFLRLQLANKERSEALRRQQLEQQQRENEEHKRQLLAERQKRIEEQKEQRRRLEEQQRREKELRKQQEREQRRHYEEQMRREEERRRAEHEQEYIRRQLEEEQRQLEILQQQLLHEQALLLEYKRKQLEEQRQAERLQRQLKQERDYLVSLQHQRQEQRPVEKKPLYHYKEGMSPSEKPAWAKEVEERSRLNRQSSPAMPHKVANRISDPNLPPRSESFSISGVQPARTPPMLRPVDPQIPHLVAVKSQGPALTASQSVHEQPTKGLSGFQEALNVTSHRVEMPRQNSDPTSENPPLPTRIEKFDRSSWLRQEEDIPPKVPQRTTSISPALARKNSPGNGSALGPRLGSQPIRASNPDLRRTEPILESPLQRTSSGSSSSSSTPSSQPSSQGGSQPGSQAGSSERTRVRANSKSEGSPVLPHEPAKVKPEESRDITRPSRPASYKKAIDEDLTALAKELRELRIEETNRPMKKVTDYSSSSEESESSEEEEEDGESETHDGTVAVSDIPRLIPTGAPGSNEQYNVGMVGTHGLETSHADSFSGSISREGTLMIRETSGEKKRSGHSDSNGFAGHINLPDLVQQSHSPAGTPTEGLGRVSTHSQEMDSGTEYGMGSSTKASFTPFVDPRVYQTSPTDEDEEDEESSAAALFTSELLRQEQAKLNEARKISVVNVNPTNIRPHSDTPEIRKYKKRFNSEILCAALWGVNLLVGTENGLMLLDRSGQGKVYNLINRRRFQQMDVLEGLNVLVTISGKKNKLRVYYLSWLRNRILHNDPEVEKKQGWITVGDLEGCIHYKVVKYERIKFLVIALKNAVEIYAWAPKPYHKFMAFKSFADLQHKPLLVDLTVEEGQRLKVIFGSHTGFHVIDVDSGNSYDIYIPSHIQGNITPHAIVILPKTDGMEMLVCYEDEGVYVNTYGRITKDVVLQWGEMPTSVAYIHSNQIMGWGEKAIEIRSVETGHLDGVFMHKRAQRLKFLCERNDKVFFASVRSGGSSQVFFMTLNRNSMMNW
# Chain of Angiopoietin-1 receptor (Homo sapiens) (Q02763 whole entry): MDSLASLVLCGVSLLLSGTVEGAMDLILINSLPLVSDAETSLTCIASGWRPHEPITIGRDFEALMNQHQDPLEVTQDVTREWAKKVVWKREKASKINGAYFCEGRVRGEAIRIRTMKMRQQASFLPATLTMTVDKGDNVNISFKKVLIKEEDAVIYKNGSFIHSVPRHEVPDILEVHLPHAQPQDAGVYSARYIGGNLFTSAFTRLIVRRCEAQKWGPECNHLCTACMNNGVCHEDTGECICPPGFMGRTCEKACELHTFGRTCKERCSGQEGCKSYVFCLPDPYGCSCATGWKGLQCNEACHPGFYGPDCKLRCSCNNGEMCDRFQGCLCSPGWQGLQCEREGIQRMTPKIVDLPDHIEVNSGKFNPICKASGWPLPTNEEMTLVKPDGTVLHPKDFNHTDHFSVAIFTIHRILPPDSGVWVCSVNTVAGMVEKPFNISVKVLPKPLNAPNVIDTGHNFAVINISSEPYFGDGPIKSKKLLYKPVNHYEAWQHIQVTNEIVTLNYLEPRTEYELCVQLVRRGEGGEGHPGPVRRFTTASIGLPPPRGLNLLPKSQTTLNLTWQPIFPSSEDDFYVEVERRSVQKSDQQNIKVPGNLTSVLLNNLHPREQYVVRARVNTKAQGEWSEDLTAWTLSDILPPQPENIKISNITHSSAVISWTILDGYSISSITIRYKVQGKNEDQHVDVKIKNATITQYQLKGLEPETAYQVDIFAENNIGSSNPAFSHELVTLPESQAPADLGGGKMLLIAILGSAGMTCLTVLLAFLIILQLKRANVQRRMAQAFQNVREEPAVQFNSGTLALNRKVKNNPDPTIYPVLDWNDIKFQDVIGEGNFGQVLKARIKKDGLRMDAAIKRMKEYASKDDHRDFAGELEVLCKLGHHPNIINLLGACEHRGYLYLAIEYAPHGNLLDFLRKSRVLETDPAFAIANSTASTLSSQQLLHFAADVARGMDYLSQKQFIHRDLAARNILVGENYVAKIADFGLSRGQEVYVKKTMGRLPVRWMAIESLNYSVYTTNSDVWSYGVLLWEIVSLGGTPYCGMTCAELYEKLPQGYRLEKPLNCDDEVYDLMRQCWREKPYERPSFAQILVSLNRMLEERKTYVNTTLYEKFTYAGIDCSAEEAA
# Chain of Tyrosine-protein kinase Yes (Homo sapiens) (P07947 2-543 limits assumed): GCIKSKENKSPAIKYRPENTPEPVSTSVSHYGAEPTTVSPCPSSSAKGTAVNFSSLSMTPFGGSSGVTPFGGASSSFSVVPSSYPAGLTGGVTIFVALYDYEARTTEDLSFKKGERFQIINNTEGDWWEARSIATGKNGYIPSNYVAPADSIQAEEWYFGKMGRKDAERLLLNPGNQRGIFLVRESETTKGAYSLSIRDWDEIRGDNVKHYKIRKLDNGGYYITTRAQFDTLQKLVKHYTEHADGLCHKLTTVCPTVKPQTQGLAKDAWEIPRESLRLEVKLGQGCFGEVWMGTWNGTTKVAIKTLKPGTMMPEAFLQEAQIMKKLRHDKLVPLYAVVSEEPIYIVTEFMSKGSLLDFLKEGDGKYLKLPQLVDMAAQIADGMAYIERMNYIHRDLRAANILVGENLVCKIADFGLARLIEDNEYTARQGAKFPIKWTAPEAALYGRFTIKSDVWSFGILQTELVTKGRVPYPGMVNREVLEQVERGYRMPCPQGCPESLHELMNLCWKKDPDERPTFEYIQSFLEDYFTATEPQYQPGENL
# Chain of Fibroblast growth factor receptor 3 (Homo sapiens) (P22607 23-806 limits assumed): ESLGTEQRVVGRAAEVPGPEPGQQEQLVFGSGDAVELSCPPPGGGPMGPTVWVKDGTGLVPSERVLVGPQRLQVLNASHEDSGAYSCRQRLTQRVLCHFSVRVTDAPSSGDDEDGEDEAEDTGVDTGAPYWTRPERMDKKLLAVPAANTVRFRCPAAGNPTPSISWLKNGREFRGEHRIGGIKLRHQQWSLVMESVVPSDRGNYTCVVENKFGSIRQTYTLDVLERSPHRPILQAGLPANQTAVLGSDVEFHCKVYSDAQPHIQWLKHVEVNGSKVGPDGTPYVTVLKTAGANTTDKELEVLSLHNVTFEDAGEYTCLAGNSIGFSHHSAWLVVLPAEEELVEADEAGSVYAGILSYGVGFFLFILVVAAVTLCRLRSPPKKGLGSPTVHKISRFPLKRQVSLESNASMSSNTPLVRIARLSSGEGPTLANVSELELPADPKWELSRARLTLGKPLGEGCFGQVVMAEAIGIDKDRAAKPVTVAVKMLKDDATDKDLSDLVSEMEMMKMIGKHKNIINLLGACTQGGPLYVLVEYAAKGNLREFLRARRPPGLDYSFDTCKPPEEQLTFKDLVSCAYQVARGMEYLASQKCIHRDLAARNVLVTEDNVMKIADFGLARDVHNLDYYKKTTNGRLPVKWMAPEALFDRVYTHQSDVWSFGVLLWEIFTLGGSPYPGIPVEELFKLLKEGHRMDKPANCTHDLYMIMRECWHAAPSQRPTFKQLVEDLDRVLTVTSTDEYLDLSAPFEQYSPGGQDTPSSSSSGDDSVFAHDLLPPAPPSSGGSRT
# Chain of Ribosomal protein S6 kinase beta-1 (Homo sapiens) (P23443 whole entry, looked up): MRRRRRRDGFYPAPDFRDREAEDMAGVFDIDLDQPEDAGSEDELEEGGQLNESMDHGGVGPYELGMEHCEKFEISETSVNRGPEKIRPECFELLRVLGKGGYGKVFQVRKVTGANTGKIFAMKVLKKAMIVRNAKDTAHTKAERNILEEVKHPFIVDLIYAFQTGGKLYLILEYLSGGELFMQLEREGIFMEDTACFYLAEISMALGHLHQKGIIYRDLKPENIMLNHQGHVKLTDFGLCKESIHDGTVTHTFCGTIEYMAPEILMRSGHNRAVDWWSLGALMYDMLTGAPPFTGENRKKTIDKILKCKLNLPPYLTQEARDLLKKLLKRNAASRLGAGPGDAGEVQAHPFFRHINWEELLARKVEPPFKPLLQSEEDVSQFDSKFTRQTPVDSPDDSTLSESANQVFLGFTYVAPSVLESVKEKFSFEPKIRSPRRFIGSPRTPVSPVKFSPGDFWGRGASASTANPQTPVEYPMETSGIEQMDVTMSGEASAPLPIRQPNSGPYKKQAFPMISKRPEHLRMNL
# Chain of Inhibitor of nuclear factor kappa-B kinase subunit epsilon (Homo sapiens) (Q14164 whole entry): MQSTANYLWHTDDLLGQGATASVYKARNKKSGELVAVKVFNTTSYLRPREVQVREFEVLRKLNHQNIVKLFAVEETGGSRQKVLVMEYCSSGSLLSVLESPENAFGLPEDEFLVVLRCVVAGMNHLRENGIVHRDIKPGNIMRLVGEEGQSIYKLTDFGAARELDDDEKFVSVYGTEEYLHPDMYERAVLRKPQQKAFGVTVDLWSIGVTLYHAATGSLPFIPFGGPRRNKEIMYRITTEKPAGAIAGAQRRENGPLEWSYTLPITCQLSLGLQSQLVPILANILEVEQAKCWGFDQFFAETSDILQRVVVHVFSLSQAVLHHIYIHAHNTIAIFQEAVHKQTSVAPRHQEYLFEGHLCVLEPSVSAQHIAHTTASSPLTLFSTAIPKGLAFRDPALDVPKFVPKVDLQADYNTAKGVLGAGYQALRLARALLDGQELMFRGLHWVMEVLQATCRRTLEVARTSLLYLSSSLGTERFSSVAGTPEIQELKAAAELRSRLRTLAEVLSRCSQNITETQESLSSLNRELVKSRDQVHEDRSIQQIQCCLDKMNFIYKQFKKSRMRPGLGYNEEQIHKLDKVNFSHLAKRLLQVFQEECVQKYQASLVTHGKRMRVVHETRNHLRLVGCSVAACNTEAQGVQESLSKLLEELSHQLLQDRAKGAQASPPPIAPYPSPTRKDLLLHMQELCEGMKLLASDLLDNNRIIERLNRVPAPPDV
smiles,measurement,setting,value
COc1cc(Nc2ncc(Cl)c(-c3cccc(CC#N)c3)n2)ccc1N1CCN(C)CC1,inhibition,[1],> 95%
same,inhibition,[2],> 80%
same,inhibition,[3],> 95%
same,inhibition,[4],> 80%
same,inhibition,[5],50%
same,inhibition,[6],> 80%
same,inhibition,[7],> 80%
same,Ratio,[8],0.96
same,inhibition,[9],> 95%
same,inhibition,[10],> 80%
same,inhibition,[11],> 80%
same,inhibition,[12],> 95%
same,inhibition,[13],> 80%
same,inhibition,[14],> 95%
same,inhibition,[15],> 50%
same,inhibition,[16],> 80%
same,Papp A→B,[17],8 ×10⁻⁶ cm/s
same,inhibition,[18],50%
same,inhibition,[19],50%
same,inhibition,[20],> 95%
same,inhibition,[21],> 95%
same,inhibition,[22],50%
same,Kd,[23],86 nM
same,inhibition,[24],50%
same,inhibition,[25],> 80%
same,inhibition,[26],50%
same,inhibition,[27],> 80%
same,inhibition,[28],> 95%
same,IC50,[29],350 nM
